# Results published in PMC7093416, “Selective USP7 inhibition elicits cancer cell killing through a p53-dependent mechanism” (Scientific Reports, 2020).
# pIC50: −log10 of the molar value. Where two headings read alike, the source gives them in different places.
# Columns and labels:
# MCF7 cells = experiment: 3' DGE RNA-seq transcriptional profiling; format: cell-based; parameters: log2FoldChange: concentration or dose not given beside the values; conditions: for log2FoldChange: gene ABCA12
# Description: The DGE RNA sequencing was performed following the published method[39],[40] with modifications as described below. MCF7 cells were seeded in a 384 well plate at 2500 cells per well, allowed to adhere for 24 hours, then treated with two doses in triplicate of XL177A, XL177B, Nutlin-3, or DMSO. After 24 hours of treatment, an EL405x plate washer (BioTek) was used to aspirate the media and wash once with PBS. Cells were lysed in the plate with 10 µl of lysis buffer (1x Qiagen TCL, 1% BME) for 5 minutes at room temperature, then stored at −80 °C. Automated liquid handling was performed with assistance from ICCB-Longwood Screening Facility. A BRAVO Automated Liquid Handling Platform (Agilent) was used for RNA extraction as follows. The lysate was mixed and 10 µl was transferred to a 384 well PCR plate. 28 µl of homemade SPRI[66] (solid-phase reversible immobilization) beads were added to the lysate and mixed. After 5 minutes, the beads were pulled down by placing the plate on a magnet, then the beads were washed twice with 80% ethanol. Beads were air dried for 1 minute, then 20 µl of nuclease free water was added, the plate was removed from the magnet, and the beads were resuspended. After 5 minutes, the plate was placed back on the magnet to pull down the beads. The supernatant was transferred to a fresh 384 well plate. RNA quantity was checked with the Qubit Fluorometer and RNA quality was assessed using the Agilent BioAnalyzer RNA 6000 Pico Kit. The BRAVO platform was again used to transfer 5 µl of supernatant was transferred to a fresh 384 well plate with RT master mix and 1 µl of barcoded E3V6NEXT adapters for reverse transcription and template switching. The plate was incubated for 90 minutes at 42 °C, then cDNA was pooled, purified with the QIAquick PCR purification kit. The full-length cDNA was treated with Exonuclease I to remove excess primers for 30 minutes at 37 °C then amplified x5 cycles with Advantage 2 PCR Enzyme System using the SINGV6 primer. The amplified full-length cDNA was purified with Agencourt AMPure XP magnetic beads and quantitated by Qubit Fluorometer. The sequencing library was prepared using the Nextera DNA kit following the manufacturer’s instructions. Briefly, 55 ng of cDNA was tagmented for 5 minutes at 55 °C then purified using Zymo DNA Clean & Concetrator-5 column, then amplified x7 cycles and purified using a 0.9x ratio of AMPure XP magnetic beads. The library size distribution was assessed by Agilent BioAnalyzer HS DNA Kit before it was quantified by qPCR and sequenced on an Illumina NextSeq at the Biopolymers Facility at Harvard Medical School.
# The bcbio-nextgen single cell RNA-seq analysis pipeline (https://bcbio-nextgen.readthedocs.io/en/latest/) was used to deconvolve the well barcodes and convert reads to counts. Any detected barcode that differed by more than one base from an expected barcode was removed. Unique reads were identified using unique molecular identifiers (UMIs) in order to remove PCR duplicates. The reads remaining after these filters were aligned to the transcriptome (GRCh38) using RapMap[67]. The R package DESeq. 2 version 1.20.0 (R version 3.5.1) was used for differential expression analysis.
# [1] = system: Ewing Sarcoma, AML, multiple myeloma and rhabdoid cell lines; experiment: Cell viability (CellTiter-Glo) in individual cell line panels; format: cell-based
# Description: Cells were plated in 384-well culture-treated plates and allowed to settle overnight. After drug treament and appropriate incubation time, cell viability was assessed using the CellTiter-Glo Luminescent Cell Viability Assay (Promega). Luminescence was read on a Fluostar Omega Reader (BMG Labtech).
# HDM2-p53 signaling axis = experiment: Whole cell lysate Western blots of MCF7 cells (HDM2, p53, p21); format: cell-based
# full-length USP7 = target: T1, full-length USP7 (Homo sapiens, UniProt Q93009); experiment: Ub-AMC enzymatic assay, full-length USP7, 6 h pre-incubation; format: biochemical
# T1 construct: The constructs encoding USP7 full length (amino acids 1–1102) and catalytic domain (208–560); inferred from Ni-NTA purification; made in house; host or cells: E. coli BL21 (DE3)
# T1 sequence (Q93009 whole entry, the tested form may be a part): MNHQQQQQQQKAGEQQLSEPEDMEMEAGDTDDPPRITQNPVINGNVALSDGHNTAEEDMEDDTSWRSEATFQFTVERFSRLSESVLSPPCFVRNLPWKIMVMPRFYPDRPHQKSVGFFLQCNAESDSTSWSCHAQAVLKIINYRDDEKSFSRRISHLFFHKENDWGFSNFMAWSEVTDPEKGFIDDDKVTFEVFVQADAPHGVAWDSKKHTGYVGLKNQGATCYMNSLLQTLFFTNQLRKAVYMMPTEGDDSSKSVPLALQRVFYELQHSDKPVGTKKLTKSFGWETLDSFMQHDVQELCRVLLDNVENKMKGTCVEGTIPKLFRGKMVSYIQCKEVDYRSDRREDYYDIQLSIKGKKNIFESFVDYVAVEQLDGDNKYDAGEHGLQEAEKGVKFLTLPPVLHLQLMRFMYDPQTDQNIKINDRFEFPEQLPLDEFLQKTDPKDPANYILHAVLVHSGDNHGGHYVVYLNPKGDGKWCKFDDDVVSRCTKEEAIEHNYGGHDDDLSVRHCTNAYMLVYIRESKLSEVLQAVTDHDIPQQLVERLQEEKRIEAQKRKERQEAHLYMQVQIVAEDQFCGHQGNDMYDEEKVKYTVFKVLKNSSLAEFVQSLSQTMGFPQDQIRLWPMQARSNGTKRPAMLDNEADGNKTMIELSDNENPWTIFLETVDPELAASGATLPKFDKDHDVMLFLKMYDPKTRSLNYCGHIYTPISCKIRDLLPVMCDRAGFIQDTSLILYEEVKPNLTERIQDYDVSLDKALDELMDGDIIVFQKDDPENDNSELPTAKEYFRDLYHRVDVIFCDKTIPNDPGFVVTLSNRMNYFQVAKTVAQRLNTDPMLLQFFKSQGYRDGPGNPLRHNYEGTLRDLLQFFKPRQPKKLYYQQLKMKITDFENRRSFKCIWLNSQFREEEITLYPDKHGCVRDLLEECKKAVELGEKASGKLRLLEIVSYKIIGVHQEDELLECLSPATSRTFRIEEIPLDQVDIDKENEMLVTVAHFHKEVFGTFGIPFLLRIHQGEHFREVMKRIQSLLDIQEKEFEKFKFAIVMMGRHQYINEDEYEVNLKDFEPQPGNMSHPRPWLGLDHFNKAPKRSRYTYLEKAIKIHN
# Description: Full length USP7 was tested for its activity in Ubiquitin-AMC assay in presence or absence of inhibitors. USP7 (5 nM) was pre-incubated for 6 hours at room temperature with different concentrations of inhibitors or DMSO as a control in 50 mM HEPES pH 7.5, 0.5 mM EDTA, 11 uM ovalbumin, and 5 mM DTT. Ubiquitin-AMC (Boston Biochem) was then added to a final concentration of 500 nM. The initial rate of the reaction was measured by collecting fluorescence data at one minute intervals over 30-minute period using a Clariostar fluorescence plate reader at excitation and emission wavelength of 345 and 445 nm respectively. The calculated initial rate values were plotted against inhibitor concentrations to determine IC50s. All the experimental data were plotted using Prism GraphPad. All assays for each compound were performed at least twice for each compound.
# USP7 = USP7 (Homo sapiens, UniProt Q93009); experiment: Live cell treatment and competitive ABPP with HA-Ub-VS; format: cell-based; parameters: endogenous in cells; host or cells: MCF7; conditions: live cell treatment, 6 hr; read-out: IC50, USP7 inhibition in cyto
# USP7, sequence (Q93009 whole entry): as the sequence (Q93009 whole entry, the tested form may be a part) above
# Description: HA-Ub-VS experiments were performed as previously described in Lamberto et al[29]. Briefly, target engagement lysis buffer (50 mM Tris pH 8.0, 150 mM NaCl, 5 mM MgCl2, 0.5 mM EDTA, 0.5% NP-40, 10% glycerol, 1 mM TCEP, protease and phosphatase inhibitors) was added to cell pellets on ice. Lysate was cleared by centrifugation and diluted to 1.67 mg/mL. Where indicated, 30 μL lysate was then incubated with inhibitors or DMSO for the indicated timepoints. 1 μM HA-Ub-VS was then added to the lysate and incubated at RT for the indicated time points. Labeling reactions were quenched with 4x LDS sample buffer (Thermo Fisher B0007) supplemented with 10% BME, vortexed vigorously, and heated to 95 C for 5 minutes. Samples were resolved by SDS-PAGE and analyzed by Western blot with the indicated antibodies.
pIC50 (full-length USP7; read-out: potency as irreversible inhibitor of USP7),pIC50 (USP7),"pIC50 (full-length USP7; Ub-AMC, 6-hour pre-treatment, read-out: IC50)",SMILES,"direct p53 target genes (MCF7 cells; 24 hours, low and high dose)",TP53-WT cell lines sensitive [1],TP53-mutant cell lines sensitive [1],"DREAM complex target genes (MCF7 cells; 24 hours, low and high dose)",log2FoldChange (MCF7 cells; concentration 0.1),log2FoldChange (MCF7 cells; concentration 1),p53 and p21 protein levels (HDM2-p53 signaling axis),time to degradation of HDM2 (HDM2-p53 signaling axis) [h],less potent than XL177A in the cell lines tested [1],"hierarchical clustering of transcriptional profile (MCF7 cells; 24 hours, 0.1 or 1 μM)",effects on HDM2-p53 signaling and cell cycle (HDM2-p53 signaling axis; negative control)
–,–,–,COc1ccc(C2=N[C@@H](c3ccc(Cl)cc3)[C@@H](c3ccc(Cl)cc3)N2C(=O)N2CCNC(=O)C2)c(OC(C)C)c1 [Nutlin-3A],enriched for the direct p53 target genes,–,–,–,–,–,–,–,–,–,–
9.47,7.41,–,CN1CCN(CCC(=O)Nc2ccc3c(=O)n(CC4(O)CCN(C(=O)[C@@H](CCCNC(=O)c5ccc6c(Cl)c7c(nc6c5)CCCC7)Cc5ccccc5)CC4)cnc3c2)CC1 [XL177A],strongly upregulated the p53 targets,9 out of 10,1 out of 17,strongly downregulated the DREAM complex targets,0.471,0.4983,increases in p53 and downstream p21 protein levels,≤ 2,–,–,–
–,–,6.47,CN1CCN(CCC(=O)Nc2ccc3c(=O)n(CC4(O)CCN(C(=O)[C@H](CCCNC(=O)c5ccc6c(Cl)c7c(nc6c5)CCCC7)Cc5ccccc5)CC4)cnc3c2)CC1 [XL177B],–,–,–,–,0.1473,0.2612,–,–,~ 100 fold,clustered with the vehicle (DMSO)-treated control cells,did not exert any of the same effects except at 10 μM
